Measured values published in ChEMBL document CHEMBL3763020, “Tetramethylpyrazine improves the recovery of spinal cord injury via Akt/Nrf2/HO-1 pathway” (2016).
Activity calls are given as the source filed them. The rule behind the calls is not given here.

Experiments:
Rattus norvegicus [1] = assay: Neuroprotective activity in Sprague-Dawley rat model of spinal cord injury assessed as decrease in IL1-beta levels in spinal cord tissue at 200 mg/kg, ip by ELISA; assay type: functional, organism-based
Rattus norvegicus [2] = assay: Neuroprotective activity in Sprague-Dawley rat model of spinal cord injury assessed as decrease in IL1-beta levels in spinal cord tissue at 200 mg/kg, ip by ELISA in presence of 25 umol/kg of HO-1 inhibitor ZnPP; assay type: functional, organism-based
Rattus norvegicus [3] = assay: Neuroprotective activity in Sprague-Dawley rat model of spinal cord injury assessed as decrease in IL1-beta levels in spinal cord tissue at 200 mg/kg, ip by ELISA in presence of Akt inhibitor LY294002; assay type: functional, organism-based
Rattus norvegicus [4] = assay: Neuroprotective activity in Sprague-Dawley rat model of spinal cord injury assessed as decrease in TNF-alpha levels in spinal cord tissue at 200 mg/kg, ip by ELISA; assay type: functional, organism-based
Rattus norvegicus [5] = assay: Neuroprotective activity in Sprague-Dawley rat model of spinal cord injury assessed as decrease in TNF-alpha levels in spinal cord tissue at 200 mg/kg, ip by ELISA in presence of 25 umol/kg of HO-1 inhibitor ZnPP; assay type: functional, organism-based
Rattus norvegicus [6] = assay: Neuroprotective activity in Sprague-Dawley rat model of spinal cord injury assessed as decrease in TNF-alpha levels in spinal cord tissue at 200 mg/kg, ip by ELISA in presence of Akt inhibitor LY294002; assay type: functional, organism-based
Rattus norvegicus [7] = assay: Neuroprotective activity in Sprague-Dawley rat model of spinal cord injury assessed as decrease in IL-18 levels in spinal cord tissue at 200 mg/kg, ip by ELISA; assay type: functional, organism-based
Rattus norvegicus [8] = assay: Neuroprotective activity in Sprague-Dawley rat model of spinal cord injury assessed as decrease in IL-18 levels in spinal cord tissue at 200 mg/kg, ip by ELISA in presence of 25 umol/kg of HO-1 inhibitor ZnPP; assay type: functional, organism-based
Rattus norvegicus [9] = assay: Neuroprotective activity in Sprague-Dawley rat model of spinal cord injury assessed as decrease in IL-18 levels in spinal cord tissue at 200 mg/kg, ip by ELISA in presence of Akt inhibitor LY294002; assay type: functional, organism-based
Rattus norvegicus [10] = assay: Neuroprotective activity in Sprague-Dawley rat model of spinal cord injury assessed as accumulation at G0/G1 phase at 200 mg/kg, ip by TUNEL staining-based flow cytometric analysis (reference value: 34.1 %); assay type: functional
Rattus norvegicus [11] = assay: Neuroprotective activity in Sprague-Dawley rat model of spinal cord injury assessed as accumulation at G0/G1 phase at 200 mg/kg, ip by TUNEL staining-based flow cytometric analysis in presence of 25 umol/kg of HO-1 inhibitor ZnPP (reference value: 34.1 %); assay type: functional
Rattus norvegicus [12] = assay: Neuroprotective activity in Sprague-Dawley rat model of spinal cord injury assessed as accumulation at G0/G1 phase at 200 mg/kg, ip by TUNEL staining-based flow cytometric analysis in presence of Akt inhibitor LY294002 (reference value: 34.1 %); assay type: functional
Rattus norvegicus [13] = assay: Neuroprotective activity in Sprague-Dawley rat model of spinal cord injury assessed as decrease in activated caspase-3 level at 200 mg/kg, ip; assay type: functional, organism-based
Rattus norvegicus [14] = assay: Neuroprotective activity in Sprague-Dawley rat model of spinal cord injury assessed as decrease in activated caspase-3 level at 200 mg/kg, ip in presence of 25 umol/kg of HO-1 inhibitor ZnPP; assay type: functional, organism-based
Rattus norvegicus [15] = assay: Neuroprotective activity in Sprague-Dawley rat model of spinal cord injury assessed as decrease in activated caspase-3 level at 200 mg/kg, ip in presence of Akt inhibitor LY294002; assay type: functional, organism-based
Rattus norvegicus [16] = assay: Neuroprotective activity in Sprague-Dawley rat model of spinal cord injury assessed as decrease in activated caspase-9 level at 200 mg/kg, ip; assay type: functional, organism-based
Rattus norvegicus [17] = assay: Neuroprotective activity in Sprague-Dawley rat model of spinal cord injury assessed as decrease in activated caspase-9 level at 200 mg/kg, ip in presence of 25 umol/kg of HO-1 inhibitor ZnPP; assay type: functional, organism-based
Rattus norvegicus [18] = assay: Neuroprotective activity in Sprague-Dawley rat model of spinal cord injury assessed as decrease in activated caspase-9 level at 200 mg/kg, ip in presence of Akt inhibitor LY294002; assay type: functional, organism-based
Rattus norvegicus [19] = assay: Neuroprotective activity in Sprague-Dawley rat model of spinal cord injury assessed as decrease in thiobarbituric acid reactive substances level at 200 mg/kg, ip by malondialdehyde assay; assay type: functional, organism-based
Rattus norvegicus [20] = assay: Neuroprotective activity in Sprague-Dawley rat model of spinal cord injury assessed as decrease in thiobarbituric acid reactive substances level at 200 mg/kg, ip by malondialdehyde assay in presence of 25 umol/kg of HO-1 inhibitor ZnPP; assay type: functional, organism-based
Rattus norvegicus [21] = assay: Neuroprotective activity in Sprague-Dawley rat model of spinal cord injury assessed as decrease in thiobarbituric acid reactive substances level at 200 mg/kg, ip by malondialdehyde assay in presence of Akt inhibitor LY294002; assay type: functional, organism-based
Rattus norvegicus [22] = assay: Neuroprotective activity in Sprague-Dawley rat model of spinal cord injury assessed as increase in glutathione level at 200 mg/kg, ip by reduced glutathione assay; assay type: functional, organism-based
Rattus norvegicus [23] = assay: Neuroprotective activity in Sprague-Dawley rat model of spinal cord injury assessed as increase in glutathione level at 200 mg/kg, ip by reduced glutathione assay in presence of 25 umol/kg of HO-1 inhibitor ZnPP; assay type: functional, organism-based
Rattus norvegicus [24] = assay: Neuroprotective activity in Sprague-Dawley rat model of spinal cord injury assessed as increase in glutathione level at 200 mg/kg, ip by reduced glutathione assay in presence of Akt inhibitor LY294002; assay type: functional, organism-based
Rattus norvegicus [25] = assay: Neuroprotective activity in Sprague-Dawley rat model of spinal cord injury assessed as increase in superoxide dismutase activity at 200 mg/kg, ip; assay type: functional, organism-based
Rattus norvegicus [26] = assay: Neuroprotective activity in Sprague-Dawley rat model of spinal cord injury assessed as increase in superoxide dismutase activity at 200 mg/kg, ip in presence of 25 umol/kg of HO-1 inhibitor ZnPP; assay type: functional, organism-based
Rattus norvegicus [27] = assay: Neuroprotective activity in Sprague-Dawley rat model of spinal cord injury assessed as increase in superoxide dismutase activity at 200 mg/kg, ip in presence of Akt inhibitor LY294002; assay type: functional, organism-based
Rattus norvegicus [28] = assay: Neuroprotective activity in Sprague-Dawley rat model of spinal cord injury assessed as increase in HO-1 mRNA expression at 200 mg/kg, ip by real time PCR method; assay type: functional, organism-based
Rattus norvegicus [29] = assay: Neuroprotective activity in Sprague-Dawley rat model of spinal cord injury assessed as increase in HO-1 mRNA expression at 200 mg/kg, ip by real time PCR method in presence of 25 umol/kg of HO-1 inhibitor ZnPP; assay type: functional, organism-based
Rattus norvegicus [30] = assay: Neuroprotective activity in Sprague-Dawley rat model of spinal cord injury assessed as increase in HO-1 mRNA expression at 200 mg/kg, ip by real time PCR method in presence of Akt inhibitor LY294002; assay type: functional, organism-based
Rattus norvegicus [31] = assay: Neuroprotective activity in Sprague-Dawley rat model of spinal cord injury assessed as increase in Akt phosphorylation at 200 mg/kg, ip by Western blot analysis; assay type: functional, organism-based
Rattus norvegicus [32] = assay: Neuroprotective activity in Sprague-Dawley rat model of spinal cord injury assessed as increase in Akt phosphorylation at 200 mg/kg, ip by western blot analysis in presence of 25 umol/kg of HO-1 inhibitor ZnPP; assay type: functional, organism-based
Rattus norvegicus [33] = assay: Neuroprotective activity in Sprague-Dawley rat model of spinal cord injury assessed as increase in Akt phosphorylation at 200 mg/kg, ip by western blot analysis in presence of Akt inhibitor LY294002; assay type: functional, organism-based
Rattus norvegicus [34] = assay: Neuroprotective activity in Sprague-Dawley rat model of spinal cord injury assessed as increase in Nrf2 mRNA expression at 200 mg/kg, ip by real time PCR method; assay type: functional, organism-based
Rattus norvegicus [35] = assay: Neuroprotective activity in Sprague-Dawley rat model of spinal cord injury assessed as increase in Nrf2 mRNA expression at 200 mg/kg, ip by real time PCR method in presence of 25 umol/kg of HO-1 inhibitor ZnPP; assay type: functional, organism-based
Rattus norvegicus [36] = assay: Neuroprotective activity in Sprague-Dawley rat model of spinal cord injury assessed as increase in Nrf2 mRNA expression at 200 mg/kg, ip by real time PCR method in presence of Akt inhibitor LY294002; assay type: functional, organism-based
Rattus norvegicus [37] = assay: Induction of Nrf2 binding to HO-1 promoter in Sprague-Dawley rat model of spinal cord injury at 200 mg/kg, ip by chromatin immunoprecipitation assay; assay type: functional, organism-based
Rattus norvegicus [38] = assay: Induction of Nrf2 binding to HO-1 promoter in Sprague-Dawley rat model of spinal cord injury at 200 mg/kg, ip by chromatin immunoprecipitation assay in presence of 25 umol/kg of HO-1 inhibitor ZnPP; assay type: functional, organism-based
Rattus norvegicus [39] = assay: Induction of Nrf2 binding to HO-1 promoter in Sprague-Dawley rat model of spinal cord injury at 200 mg/kg, ip by chromatin immunoprecipitation assay in presence of Akt inhibitor LY294002; assay type: functional, organism-based
Rattus norvegicus [40] = assay: Neuroprotective activity in Sprague-Dawley rat model of spinal cord injury assessed as locomotor function recovery at 200 mg/kg, ip measured during 3 to 28 days; assay type: functional, organism-based
Rattus norvegicus [41] = assay: Neuroprotective activity in Sprague-Dawley rat model of spinal cord injury assessed as decrease in Evans blue leakage in spinal cord tissue at 200 mg/kg, ip after 24 hrs in presence of 25 umol/kg of HO-1 inhibitor ZnPP; assay type: functional, organism-based
Rattus norvegicus [42] = assay: Neuroprotective activity in Sprague-Dawley rat model of spinal cord injury assessed as locomotor function recovery at 200 mg/kg, ip measured during 3 to 28 days in presence of 25 umol/kg of HO-1 inhibitor ZnPP; assay type: functional, organism-based
Rattus norvegicus [43] = assay: Neuroprotective activity in Sprague-Dawley rat model of spinal cord injury assessed as locomotor function recovery at 200 mg/kg, ip measured during 3 to 28 days in presence of Akt inhibitor LY294002; assay type: functional, organism-based
Rattus norvegicus [44] = assay: Neuroprotective activity in Sprague-Dawley rat model of spinal cord injury assessed as decrease in Evans blue leakage in spinal cord tissue at 200 mg/kg, ip after 24 hrs; assay type: functional, organism-based
Rattus norvegicus [45] = assay: Neuroprotective activity in Sprague-Dawley rat model of spinal cord injury assessed as decrease in Evans blue leakage in spinal cord tissue at 200 mg/kg, ip after 24 hrs in presence of Akt inhibitor LY294002; assay type: functional, organism-based
Rattus norvegicus [46] = assay: Neuroprotective activity in Sprague-Dawley rat model of spinal cord injury assessed as decrease in Evans blue leakage in spinal cord tissue at 200 mg/kg, ip after 48 hrs; assay type: functional, organism-based
Rattus norvegicus [47] = assay: Neuroprotective activity in Sprague-Dawley rat model of spinal cord injury assessed as decrease in Evans blue leakage in spinal cord tissue at 200 mg/kg, ip after 48 hrs in presence of 25 umol/kg of HO-1 inhibitor ZnPP; assay type: functional, organism-based
Rattus norvegicus [48] = assay: Neuroprotective activity in Sprague-Dawley rat model of spinal cord injury assessed as decrease in Evans blue leakage in spinal cord tissue at 200 mg/kg, ip after 48 hrs in presence of Akt inhibitor LY294002; assay type: functional, organism-based

## Cc1nc(C)c(C)nc1C [LIGUSTRAZINE]
Rattus norvegicus [1]
  Activity: Active
Rattus norvegicus [2]
  Activity: inactive
Rattus norvegicus [3]
  Activity: inactive
Rattus norvegicus [4]
  Activity: Active
Rattus norvegicus [5]
  Activity: inactive
Rattus norvegicus [6]
  Activity: inactive
Rattus norvegicus [7]
  Activity: Active
Rattus norvegicus [8]
  Activity: inactive
Rattus norvegicus [9]
  Activity: inactive
Rattus norvegicus [10]
  Activity: 8%
Rattus norvegicus [11]
  Activity: 15%
Rattus norvegicus [12]
  Activity: 16.2%
Rattus norvegicus [13]
  Activity: Active
Rattus norvegicus [14]
  Activity: inactive
Rattus norvegicus [15]
  Activity: inactive
Rattus norvegicus [16]
  Activity: Active
Rattus norvegicus [17]
  Activity: inactive
Rattus norvegicus [18]
  Activity: inactive
Rattus norvegicus [19]
  Activity: Active
Rattus norvegicus [20]
  Activity: inactive
Rattus norvegicus [21]
  Activity: inactive
Rattus norvegicus [22]
  Activity: Active
Rattus norvegicus [23]
  Activity: inactive
Rattus norvegicus [24]
  Activity: inactive
Rattus norvegicus [25]
  Activity: Active
Rattus norvegicus [26]
  Activity: inactive
Rattus norvegicus [27]
  Activity: inactive
Rattus norvegicus [28]
  Activity: Active
Rattus norvegicus [29]
  Activity: inactive
Rattus norvegicus [30]
  Activity: inactive
Rattus norvegicus [31]
  Activity: Active
Rattus norvegicus [32]
  Activity: Active
Rattus norvegicus [33]
  Activity: Active
Rattus norvegicus [34]
  Activity: Active
Rattus norvegicus [35]
  Activity: Active
Rattus norvegicus [36]
  Activity: inactive
Rattus norvegicus [37]
  Activity: Active
Rattus norvegicus [38]
  Activity: Active
Rattus norvegicus [39]
  Activity: inactive
Rattus norvegicus [40]
  Activity: Active
Rattus norvegicus [41]
  Activity: inactive
Rattus norvegicus [42]
  Activity: inactive
Rattus norvegicus [43]
  Activity: inactive
Rattus norvegicus [44]
  Activity: Active
Rattus norvegicus [45]
  Activity: inactive
Rattus norvegicus [46]
  Activity: Active
Rattus norvegicus [47]
  Activity: inactive
Rattus norvegicus [48]
  Activity: inactive
